{"source": "patent US7250399B2", "about": "“Compounds having growth hormone releasing activity” (The Administrators of the Tulane Educational Fund, priority 1998, dated 2007)", "key": {"Growth Hormone release [1]": {"tested_on": "Growth Hormone release", "experiment": "In Vivo GH Release in Rats (i.v., serum GH by RIA)", "set-up": "species or system Sprague-Dawley rats", "settings": "for In Vivo Release of Growth Hormone in Rat, GH: i.v., serum 10 min after injection", "experimental": "Immature female Sprague-Dawley rats were obtained from the Charles River Laboratories (Wilmington, Mass.). After arrival they were housed at 25° C. with a 14:10 hour light:dark cycle. Water and Purina rat chow were available ad libitum. Pups were kept with their mothers until 21 days of age.\nTwenty-six day old rats, six rats per treatment group, were anesthetized interperitoneally with 50 mg/kg of pentobarbital 20 minutes prior to i.v. treatment with peptide. Normal saline with 0.1% gelatin was the vehicle for intravenous (i.v.) injections of the peptides. The anesthetized rats, weighing 55-65 grams, were injected i.v. with the quantity of grown hormone releasing compounds indicated in Table 3. Injection was made as a 0.1 mL solution into the jugular vein.\nAll animals were sacrificed by guillotine 10 minutes after final test injection (see Table 3). Trunk blood for the determination of blood GH levels was collected following decapitation. After allowing the blood to clot, it was centrifuged and the serum was separated from the clot. Serum was kept frozen until the day of sampling for radioimmunoassay (RIA) determination of growth hormone levels according to the following procedure, as developed by the National Institute of Arthritis, Diabetes and Digestive and Kidney Diseases (NIADDK).\nReagents are generally added to the RIA analysis tubes at a single sitting, at refrigerator temperature (about 4° C.) in the following sequence: • (a) buffer, • (b) “cold” (i.e., non-radioactive) standard or unknown serum sample to be analyzed, • (c) radio-iodinated growth hormone antigen, and • (d) growth hormone antiserum.\nReagent addition is generally carried out so that there is achieved a final RIA tube dilution of about 1:30,000 (antiserum to total liquid volume; vol:vol).\nThe mixed reagents are then typically incubated at room temperature (about 25° C.) for about 24 hours prior to addition of a second antibody (e.g., goat or rabbit anti-monkey gamma globulin serum) which binds to and causes precipitation of the complexed growth hormone antiserum. Precipitated contents of the RIA tubes are then analyzed for the number of counts in a specified period of time in a gamma scintillation counter. A standard curve is prepared by plotting number of radioactive counts versus growth hormone (GH) level. GH levels of unknown are then determined by reference to the standard curve.\nSerum GH was measured by RIA with reagents provided by the National Hormone and Pituitary Program.\nSerum levels in Tables 3 and 4 are recorded in ng/mL in terms of the rat GH standard of 0.61 International Units/mg (IU/mg). Data is recorded as the mean ±standard error of the mean (SEM). Statistical analysis was performed with Student's t-test. In Table 3, the results shown are the average of studies with six rats."}, "[2]": {"tested_on": "short-statured children with various degrees of GH deficiency", "settings": "cited from earlier work"}, "Growth Hormone release [3]": {"tested_on": "Growth Hormone release", "experiment": "In Vitro Release of Growth Hormone in Rat", "assay_type": "cell-based", "experimental": "(§1) In vitro and in vivo activity of certain compounds were determined in rats and adult beagle dogs (in vivo activity only)."}, "Growth Hormone release [4]": {"tested_on": "Growth Hormone release", "experiment": "In Vivo Release of Growth Hormone in Adult Beagle Dogs", "set-up": "unit not given here", "experimental": "as §1"}, "[5]": {"settings": "compound at 1 (dose unit not given)"}}, "note": "Values joined by “and” are separate entries in the source; they are usually repeats but may differ in a detail not shown here. Identical values can stand only once. Square brackets hold non-standard residues; d marks the D form. Ends that are not written are not given here. d2Nal = N[C@H](Cc1ccc2ccccc2c1)C(=O)O", "data": [{"substance": "[dA][d2Nal]AW[dF]K-NH2 [GHRP-2]", "values": [{"measurement": "GH ng/ml, GHRP-2 (.03)", "setting": "Growth Hormone release [1]; rat, GHRP-2 reference standard, dose (.03) (dose unit not given)", "value": 811, "unit": "ng/mL"}, {"measurement": "effect on height velocity compared with chronic recombinant human growth hormone (rhGH) administration", "setting": "[2]; in vivo", "value": "less effective"}, {"measurement": "rate of height velocity", "setting": "[2]; short-statured children, 2-3 times per day over a 2 year period", "value": "accelerated"}]}, {"substance": "Aib-DTrp-DPro-diisobutylamide", "values": [{"measurement": "In Vitro Release of Growth Hormone in Rat, GH", "setting": "Growth Hormone release [3]; [5]", "value": 1124, "unit": "ng/mL"}, {"measurement": "In Vitro Release of Growth Hormone in Rat, GH", "setting": "Growth Hormone release [3]; compound at .01 (dose unit not given)", "value": 1322, "unit": "ng/mL"}, {"measurement": "In Vitro Release of Growth Hormone in Rat, GH", "setting": "Growth Hormone release [3]; compound at .03 (dose unit not given)", "value": 1529, "unit": "ng/mL"}, {"measurement": "In Vitro Release of Growth Hormone in Rat, GH", "setting": "Growth Hormone release [3]; compound at .1 (dose unit not given)", "value": 1427, "unit": "ng/mL"}, {"measurement": "In Vitro Release of Growth Hormone in Rat, GH", "setting": "Growth Hormone release [3]; compound at .3 (dose unit not given)", "value": 1155, "unit": "ng/mL"}, {"measurement": "In Vivo Release of Growth Hormone in Rat, GH", "setting": "Growth Hormone release [1]; [5]", "value": 642, "unit": "ng/mL"}, {"measurement": "In Vivo Release of Growth Hormone in Rat, GH", "setting": "Growth Hormone release [1]; compound at 3 (dose unit not given)", "value": 1524, "unit": "ng/mL"}, {"measurement": "In Vivo Release of Growth Hormone in Rat, GH", "setting": "Growth Hormone release [1]; compound at 10 (dose unit not given)", "value": 1837, "unit": "ng/mL"}, {"measurement": "In Vivo Release of Growth Hormone in Rat, GH", "setting": "Growth Hormone release [1]; compound at 30 (dose unit not given)", "value": 2307, "unit": "ng/mL"}, {"measurement": "In Vivo Release of Growth Hormone in Rat, GH", "setting": "Growth Hormone release [1]; compound at 100 (dose unit not given)", "value": 2913, "unit": "ng/mL"}, {"measurement": "In Vivo Release of Growth Hormone in Adult Beagle Dogs", "setting": "Growth Hormone release [4]; oral dose 1 mg/kg, time 0.5 hr, listed as DPo-diisobutylamide, 1 mg/kg", "value": "85 and 128 and 89"}, {"measurement": "In Vivo Release of Growth Hormone in Adult Beagle Dogs", "setting": "Growth Hormone release [4]; oral dose 1 mg/kg, time 1 hr, listed as DPo-diisobutylamide, 1 mg/kg", "value": "30 and 50 and 59"}, {"measurement": "In Vivo Release of Growth Hormone in Adult Beagle Dogs", "setting": "Growth Hormone release [4]; oral dose 1 mg/kg, time 2 hr, listed as DPo-diisobutylamide, 1 mg/kg", "value": "16 and 24 and 30"}, {"measurement": "In Vivo Release of Growth Hormone in Adult Beagle Dogs", "setting": "Growth Hormone release [4]; oral dose 1 mg/kg, time 4 hr, listed as DPo-diisobutylamide, 1 mg/kg", "value": "6 and 5.6 and 7"}, {"measurement": "In Vivo Release of Growth Hormone in Adult Beagle Dogs", "setting": "Growth Hormone release [4]; oral dose 1 mg/kg, time 7 hr, listed as DPo-diisobutylamide, 1 mg/kg", "value": "2.5 and 2.2 and 3.7"}, {"measurement": "In Vivo Release of Growth Hormone in Adult Beagle Dogs", "setting": "Growth Hormone release [4]; oral dose 2 mg/kg, time 0.5 hr", "value": 54}, {"measurement": "In Vivo Release of Growth Hormone in Adult Beagle Dogs", "setting": "Growth Hormone release [4]; oral dose 2 mg/kg, time 1 hr", "value": 30}, {"measurement": "In Vivo Release of Growth Hormone in Adult Beagle Dogs", "setting": "Growth Hormone release [4]; oral dose 2 mg/kg, time 2 hr", "value": 22}, {"measurement": "In Vivo Release of Growth Hormone in Adult Beagle Dogs", "setting": "Growth Hormone release [4]; oral dose 2 mg/kg, time 3 hr", "value": 15}, {"measurement": "In Vivo Release of Growth Hormone in Adult Beagle Dogs", "setting": "Growth Hormone release [4]; oral dose 2 mg/kg, time 4 hr", "value": 7}, {"measurement": "In Vivo Release of Growth Hormone in Adult Beagle Dogs", "setting": "Growth Hormone release [4]; oral dose 2 mg/kg, time 5 hr", "value": 4.6}, {"measurement": "In Vivo Release of Growth Hormone in Adult Beagle Dogs", "setting": "Growth Hormone release [4]; oral dose 2 mg/kg, time 6 hr", "value": 4.8}, {"measurement": "In Vivo Release of Growth Hormone in Adult Beagle Dogs", "setting": "Growth Hormone release [4]; oral dose 2 mg/kg, time 8 hr", "value": 1.8}, {"measurement": "In Vivo Release of Growth Hormone in Adult Beagle Dogs", "setting": "Growth Hormone release [4]; oral dose 4 mg/kg, time 0 hr, listed as DPo-diisobutylamide, 4 mg/kg", "value": "1.4 and 0.8"}, {"measurement": "In Vivo Release of Growth Hormone in Adult Beagle Dogs", "setting": "Growth Hormone release [4]; oral dose 4 mg/kg, time 3 hr, listed as DPo-diisobutylamide, 4 mg/kg", "value": "15 and 22"}, {"measurement": "In Vivo Release of Growth Hormone in Adult Beagle Dogs", "setting": "Growth Hormone release [4]; oral dose 4 mg/kg, time 7 hr, listed as DPo-diisobutylamide, 4 mg/kg", "value": 6.9}]}]}
